Results as given in patent US20260007131A1, “HERBICIDAL COMPOSITION CONTAINING DIFLUOROBUTENOIC ACID AMIDE COMPOUND” (ISHIHARA SANGYO KAISHA, LTD., priority 2022, published 2026).

What was measured:
Type in all cases: in vivo
[1] = system: common lambsquarters (Chenopodium album); assay: Herbicidal effect on common lambsquarters (foliar treatment); settings: Comparative Test 1, common lambsquarters, read-out: Growth inhibition rate
Method: (§1) Upland soil was put into a 1/300,000 hectare (ha) pot, seeds of barnyardgrass (Echinochloa crus-galli) were sown, and about 1.5 cm of cover soil was put. The barnyardgrass was grown for 10 days in a greenhouse until it reached a predetermined leaf stage. […] The spray solution was sprayed over the grown barnyardgrass with a small sprayer for foliar treatment.
(§2) Upland soil was put into a 1/300,000 hectare (ha) pot, seeds of barnyardgrass (Echinochloa crus-galli), crabgrass (Digitaria sanguinalis), green foxtail (Setaria viridis), wild oat (Avena fatua), Italian ryegrass (Lolium multiflorum), foxtail shortawn (Alopecurus aequalis), annual bluegrass (Poa annua), redroot pigweed (Amaranthus retroflexus), common chickweed (Stellaria media) common lambsquarters (Chenopodium album) and black nightshade (Solanum nigrum) were sown, and about 1.5 cm of cover soil was put. The plants were grown for 10 days in a greenhouse until they reached a predetermined leaf stage.

[2] = system: Italian ryegrass (Lolium multiflorum); assay: Herbicidal effect on Italian ryegrass (foliar treatment); settings: Comparative Test 1, Italian ryegrass, read-out: Growth inhibition rate
Method: as §1, §2

[3] = system: redroot pigweed (Amaranthus retroflexus); assay: Herbicidal effect on redroot pigweed (foliar treatment); settings: Comparative Test 1, redroot pigweed, read-out: Growth inhibition rate
Method: as §1, §2

[4] = system: foxtail shortawn (Alopecurus aequalis); assay: Herbicidal effect on foxtail shortawn (foliar treatment); settings: Comparative Test 1, foxtail shortawn, read-out: Growth inhibition rate
Method: as §1, §2

[5] = system: annual bluegrass (Poa annua); assay: Herbicidal effect on annual bluegrass (foliar treatment); settings: Comparative Test 1, annual bluegrass, read-out: Growth inhibition rate
Method: as §1, §2

[6] = system: common chickweed (Stellaria media); assay: Comparative Test 2: herbicidal effect on common chickweed (soil treatment); settings: Comparative Test 2, common chickweed, read-out: Growth inhibition rate
Source text: Upland soil was put into a 1/300,000 hectare (ha) pot, seeds of barnyardgrass (Echinochloa crus-galli), crabgrass (Digitaria sanguinalis), green foxtail (Setaria viridis), Italian ryegrass (Lolium multiflorum), redroot pigweed (Amaranthus retroflexus) and common chickweed (Stellaria media) were sown, and about 1.5 cm of cover soil was put. The Invention Compound (Aa-1-1, Aa-9-2) or the compound 4b described in Patent Document 1 was weighed to achieve a predetermined active ingredient dose, dissolved in acetone (containing 0.5 vol % of surfactant (TritonX-100: manufactured by Kishida Chemical Co., Ltd.)) or dimethyl sulfoxide and diluted with water (containing 0.1 vol % of agricultural spreader (Surfactant WK: manufactured by MARUWA Biochemical Co., Ltd.) in an amount corresponding to 1,000 liter per hectare, to prepare each spray solution. On the next day after sowing, each spray solution was sprayed with a small sprayer for soil treatment. On the 14th day after the soil treatment, the state of growth of each plant was visually observed, and the herbicidal effect was evaluated in accordance with the growth inhibition rate (%) of from 0 (equivalent to the non-treated area) to 100 (complete kill).

[7] = system: crabgrass (Digitaria sanguinalis); assay: Herbicidal effect on crabgrass (soil treatment)
Source text: (§3) Upland soil was put into a 1/300,000 hectare (ha) pot, seeds of barnyardgrass (Echinochloa crus-galli) were sown, and about 1.5 cm of cover soil was put. […] On the next day after sowing, the spray solution was sprayed with a small sprayer for soil treatment.
(§4) Upland soil was put into a 1/300,000 hectare (ha) pot, seeds of barnyardgrass (Echinochloa crus-galli), crabgrass (Digitaria sanguinalis), green foxtail (Setaria viridis), Italian ryegrass (Lolium multiflorum), redroot pigweed (Amaranthus retroflexus) and common chickweed (Stellaria media) were sown, and about 1.5 cm of cover soil was put.

wild oat (Avena fatua) = assay: Herbicidal effect on wild oat (foliar treatment); settings: Comparative Test 1, wild oat, read-out: Growth inhibition rate
Method: as §1, §2

[8] = system: green foxtail (Setaria viridis); assay: Herbicidal effect on green foxtail (foliar treatment); settings: Comparative Test 1, green foxtail, read-out: Growth inhibition rate
Method: as §1, §2

[9] = system: green foxtail (Setaria viridis); assay: Herbicidal effect on green foxtail (soil treatment); settings: Comparative Test 2, green foxtail, read-out: Growth inhibition rate
Source text: as §3, §4

[10] = system: Italian ryegrass (Lolium multiflorum); assay: Herbicidal effect on Italian ryegrass (soil treatment)
Source text: as §3, §4

[11] = system: common chickweed (Stellaria media); assay: Herbicidal effect on common chickweed (foliar treatment); settings: Comparative Test 1, common chickweed, read-out: Growth inhibition rate
Method: as §1, §2

[12] = system: barnyardgrass (Echinochloa crus-galli); assay: Herbicidal effect on barnyardgrass (foliar treatment); settings: Comparative Test 1, barnyardgrass, read-out: Growth inhibition rate
Method: as §1, §2

[13] = system: redroot pigweed (Amaranthus retroflexus); assay: Herbicidal effect on redroot pigweed (soil treatment)
Source text: as §3, §4

[14] = system: crabgrass (Digitaria sanguinalis); assay: Herbicidal effect on crabgrass (foliar treatment); settings: Comparative Test 1, crabgrass, read-out: Growth inhibition rate
Method: as §1, §2

[15] = system: black nightshade (Solanum nigrum); assay: Herbicidal effect on black nightshade (foliar treatment); settings: Comparative Test 1, black nightshade, read-out: Growth inhibition rate
Method: as §1, §2

[16] = system: barnyardgrass (Echinochloa crus-galli); assay: Herbicidal effect on barnyardgrass (soil treatment); settings: Comparative Test 2, barnyardgrass, read-out: Growth inhibition rate
Source text: as §3, §4

[17] = Comparative Test 2, crabgrass, read-out: Growth inhibition rate
[18] = Comparative Test 2, Italian ryegrass, read-out: Growth inhibition rate
[19] = Comparative Test 2, redroot pigweed, read-out: Growth inhibition rate

SMILES	inhibition at 500 g/ha [1]	inhibition at 1000 g/ha [1]	inhibition at 500 g/ha [2]	inhibition at 1000 g/ha [2]	inhibition at 500 g/ha [3]	inhibition at 1000 g/ha [3]	inhibition at 500 g/ha [4]	inhibition at 1000 g/ha [4]	inhibition at 500 g/ha [5]	inhibition at 1000 g/ha [5]	inhibition at 500 g/ha [6]	inhibition at 1000 g/ha [6]	inhibition at 500 g/ha [7, 17]	inhibition at 1000 g/ha [7, 17]	inhibition at 500 g/ha (wild oat (Avena fatua))	inhibition at 1000 g/ha (wild oat (Avena fatua))	inhibition at 500 g/ha [8]	inhibition at 1000 g/ha [8]	inhibition at 500 g/ha [9]	inhibition at 1000 g/ha [9]	also measured
COC(=O)[C@H]1C[C@H](NC(=O)C(F)(F)/C=C/c2cc(C)cc(F)c2)C1 [Aa-9-2]	70 to 90%	70 to 90%	≥ 90%	≥ 90%	70 to 90%	70 to 90%	≥ 90%	≥ 90%	≥ 90%	≥ 90%	≥ 90%	≥ 90%	≥ 90%	≥ 90%	≥ 90%	≥ 90%	≥ 90%	≥ 90%	≥ 90%	≥ 90%	inhibition at 500 g/ha ([7]; crabgrass, 14th day, read-out: growth inhibition rate): ≥ 70%; inhibition at 500 g/ha [10, 18]: ≥ 90%; inhibition at 1000 g/ha [10, 18]: ≥ 90%; inhibition at 500 g/ha ([10]; Italian ryegrass, 14th day, read-out: growth inhibition rate): ≥ 70%; inhibition at 500 g/ha [11]: ≥ 90%; inhibition at 1000 g/ha [11]: ≥ 90%; inhibition at 500 g/ha [12]: ≥ 90%; inhibition at 1000 g/ha [12]: ≥ 90%; inhibition at 500 g/ha [13, 19]: ≥ 90%; inhibition at 1000 g/ha [13, 19]: ≥ 90%; inhibition at 500 g/ha ([13]; redroot pigweed, 14th day, read-out: growth inhibition rate): ≥ 70%; inhibition at 500 g/ha [14]: ≥ 90%; inhibition at 1000 g/ha [14]: ≥ 90%; inhibition at 500 g/ha [15]: 50 to 70%; inhibition at 1000 g/ha [15]: 70 to 90%; inhibition at 500 g/ha [16]: ≥ 90%; inhibition at 1000 g/ha [16]: ≥ 90%
CN(C(=O)/C=C/c1ccccc1)C1CCC1 [Compound 4b, reference compound]	< 30%	< 30%	< 30%	< 30%	< 30%	30 to 50%	< 30%	< 30%	< 30%	< 30%	< 30%	< 30%	< 30%	< 30%	< 30%	< 30%	< 30%	< 30%	< 30%	< 30%	inhibition at 500 g/ha [10, 18]: < 30%; inhibition at 1000 g/ha [10, 18]: < 30%; inhibition at 500 g/ha [11]: < 30%; inhibition at 1000 g/ha [11]: 30 to 50%; inhibition at 500 g/ha [12]: < 30%; inhibition at 1000 g/ha [12]: < 30%; inhibition at 500 g/ha [13, 19]: < 30%; inhibition at 1000 g/ha [13, 19]: < 30%; inhibition at 500 g/ha [14]: < 30%; inhibition at 1000 g/ha [14]: < 30%; inhibition at 500 g/ha [15]: < 30%; inhibition at 1000 g/ha [15]: ≥ 90%; inhibition at 500 g/ha [16]: < 30%; inhibition at 1000 g/ha [16]: < 30%
